From US20080160553A1, “Method of preparing heart muscle cells and method of searching for remedy for heart diseases” (Takeda Pharmaceutical Company Limited, priority 2000, published 2008)

Experiments:
[1] = system: heart muscle cells; conditions: by activating Akt; cited from earlier work
[2] = system: heart muscle cells of rat newborns; assay: Inhibition of serum-removal-induced apoptosis of heart muscle cells, present detection method (serum re-added, about 17 h) with WST-8; type: cell-based; conditions: 1000 U/ml hLIF
Experimental: (§1) The heart muscle cells obtained by the method of the invention are adjusted to a cell density of 3×10^4 cells/well (96-wells plate) and cultured in serum-free medium such as Medium 199 in a CO2 incubator set at 5% CO2, 37° C. for 4 days, thus inducing apoptosis to reduce the survival rate of the heart muscle cells to 50% or less.
(§2) Serum such as FCS is added at a final concentration of 10% to the culture, which is then cultured for about 17 hours and measured for its dehydrogenase activity (reduction activity) with MTT or WST-8 as the coloration substrate, to determine the number of viable cells.
(§3) Using the heart muscle cells of rat newborns obtained by the present method of preparing heart muscle cells as described in Example 1, their apoptosis was induced by removing serum from the culture, and the inhibitory action of recombinant human leukemia inhibitory factor (hLIF, produced by Peprotech) on the apoptosis was detected by the conventional method with MTT as the coloration substrate and by the present method of detecting apoptosis with WST-8 or MTT as the coloration substrate, and the sensitivity of the two methods was compared.
First, the muscle cells obtained in the method of preparing heart muscle cells according to the invention were suspended at a density of 3×10^5 cells/ml in Medium 199 containing 10% fetal calf serum, put onto a 96-wells plate in a volume of 0.1 ml/well, and then cultured for 1 day in a CO2 incubator set at 5% CO2, 37° C. The plate was stirred with a micromixer (Taiyo Kagaku Kogyo Co., Ltd.) and the medium was exchanged 3 times with serum-free Medium 199, followed by adding 0 to 1000 U/ml hLIF. The culture was incubated for additional 4 days to induce apoptosis. In the conventional method, the number of viable cells in the culture was measured directly with MTT as the coloration substrate. In the method of the invention, on the other hand, fetal calf serum was added thereto at a concentration of 10%, and the cells were further cultured for about 17 hours in a CO2 incubator set at 5% CO2, 37° C., and the number of viable cells was determined by using WST-8 or MTT as the coloration substrate. […]
First, the heart muscle cells obtained in the method described in Example 1 were suspended at a density of 3×10^5 cells/ml in Medium 199 containing 10% fetal bovine serum, and put in a volume of 0.1 ml/well onto each well of 2nd to 11th rows on each of three 96-wells plates. […] The cells were cultured for 4 days to induce apoptosis, and fetal calf serum was added at a concentration of 10%, and the cells were cultured for additional 17 hours in a CO2 incubator set at 5% CO2, 37° C., and then the number of viable cells was counted with WST-8 as the coloration substrate.

[3] = system: heart muscle cells of rat newborns; assay: Inhibition of serum-removal-induced apoptosis of heart muscle cells, present detection method (serum re-added, about 17 h) with MTT; type: cell-based; conditions: 1000 U/ml hLIF, 4 days serum-free, then 10% serum about 17 h, MTT as coloration substrate
Experimental: as §1, §2
as §3, with “compared. […]” for “compared.”

[4] = system: heart muscle cells of rat newborns; assay: Inhibition of serum-removal-induced apoptosis of heart muscle cells, conventional MTT reduction method (no serum re-addition); type: cell-based; conditions: 1000 U/ml hLIF, 4 days serum-free, MTT as coloration substrate
Text: as §3
First, the muscle cells obtained in the method of preparing heart muscle cells according to the invention were suspended at a density of 3×10^5 cells/ml in Medium 199 containing 10% fetal calf serum, put onto a 96-wells plate in a volume of 0.1 ml/well, and then cultured for 1 day in a CO2 incubator set at 5% CO2, 37° C. […] In the conventional method, the number of viable cells in the culture was measured directly with MTT as the coloration substrate. In the method of the invention, on the other hand, fetal calf serum was added thereto at a concentration of 10%, and the cells were further cultured for about 17 hours in a CO2 incubator set at 5% CO2, 37° C., and the number of viable cells was determined by using WST-8 or MTT as the coloration substrate.

| Substance | effect on apoptosis of heart muscle cells [1] | increase in average absorbance relative to control group ([2]; 4 days serum-free, then 10% serum about 17 h, WST-8 as coloration substrate) | average absorbance (number of viable cells) ([2]; plate 1, WST-8, control 0.22±0.039) | average absorbance (number of viable cells) ([2]; plate 2, WST-8, control 0.15±0.028) | average absorbance (number of viable cells) ([2]; plate 3, WST-8, control 0.13±0.020) | increase in absorbance relative to control group [3] | increase in the average absorbance as compared with the control group [4] |
| --- | --- | --- | --- | --- | --- | --- | --- |
| hIGF-1: recombinant human IGF-1 (hIGF-1, produced by Peprotech) | inhibit apoptosis of heart muscle cells |  |  |  |  |  |  |
| hLIF: recombinant human leukemia inhibitory factor (hLIF, produced by Peprotech) |  | ≥ 0.3 | 0.54±0.055 | 0.45±0.035 | 0.43±0.059 | ~0.1 | ≤ 0.03 |
